In patent US12427192B2, “Water soluble adjuvant and composition containing same” (Sumitomo Pharma Co., Ltd., priority 2019, dated 2025):

Assays:
human TLR7 [1] = target: T1, human TLR7 (Homo sapiens, UniProt Q9NYK1); test: Human TLR7 reporter gene assay (HEK-Blue hTLR7 cell line), Test 22; type: cell-based; details: method of Test 1
T1 construct: expresses full-length human TLR7 and secretory alkaline phosphatase (SEAP) reporter gene; host or cells: HEK293 (TLR7/NF-κB/SEAPorter)
T1 sequence (Q9NYK1 27-1049): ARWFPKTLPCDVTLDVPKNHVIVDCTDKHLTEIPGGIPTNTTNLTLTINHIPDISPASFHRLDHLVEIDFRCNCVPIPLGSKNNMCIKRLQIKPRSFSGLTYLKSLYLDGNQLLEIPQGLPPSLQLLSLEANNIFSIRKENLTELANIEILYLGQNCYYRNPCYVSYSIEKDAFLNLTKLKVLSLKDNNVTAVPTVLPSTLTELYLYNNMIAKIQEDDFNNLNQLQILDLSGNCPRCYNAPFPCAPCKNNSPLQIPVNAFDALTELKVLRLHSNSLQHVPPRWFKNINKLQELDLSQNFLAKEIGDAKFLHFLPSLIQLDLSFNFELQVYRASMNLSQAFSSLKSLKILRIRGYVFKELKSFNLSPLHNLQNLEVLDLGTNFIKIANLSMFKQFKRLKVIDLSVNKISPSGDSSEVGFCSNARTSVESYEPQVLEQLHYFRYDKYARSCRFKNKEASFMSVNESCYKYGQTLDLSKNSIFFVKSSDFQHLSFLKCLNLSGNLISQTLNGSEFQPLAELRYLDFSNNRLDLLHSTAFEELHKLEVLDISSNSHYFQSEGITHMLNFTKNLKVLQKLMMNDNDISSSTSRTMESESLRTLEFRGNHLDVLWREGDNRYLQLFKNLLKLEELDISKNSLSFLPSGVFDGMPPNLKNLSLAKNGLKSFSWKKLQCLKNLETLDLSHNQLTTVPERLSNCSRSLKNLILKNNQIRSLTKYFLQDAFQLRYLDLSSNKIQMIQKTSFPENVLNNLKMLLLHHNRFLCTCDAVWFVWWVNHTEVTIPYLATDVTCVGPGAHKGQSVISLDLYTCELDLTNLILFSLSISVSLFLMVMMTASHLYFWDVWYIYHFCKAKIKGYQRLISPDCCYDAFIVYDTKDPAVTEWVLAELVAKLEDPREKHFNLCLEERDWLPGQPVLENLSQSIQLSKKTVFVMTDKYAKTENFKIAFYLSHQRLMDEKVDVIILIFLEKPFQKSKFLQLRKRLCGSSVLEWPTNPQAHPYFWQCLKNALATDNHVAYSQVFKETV
Excerpt: (§1) TLR7/NF-κB/SEAPorter™ HEK293 cell line (Imgenex Corporation) is a stably co-transfected cell line which expresses full-length human TLR7 and secretory alkaline phosphatase (SEAP) reporter gene under the transcriptional regulation of an NF-κB response element. The TLR7 expression of the cell line has been already tested by flow cytometry. Transfectants with stable expression were selected using the antibiotic blasticidin and Geneticin. TLR signaling leads to the translocation of NF-κB and the activation of the promoter results in expression of the SEAP gene. TLR7-specific activation was assessed by determining the level of SEAP produced following 24-hour incubation of the cells at 37° C. with each compound prepared in Examples and Reference examples in the presence of 0.1% (v/v) dimethylsulfoxide (DMSO). The human TLR7 activity for the present compound was assessed by human TLR7 reporter gene assay, and the results are shown in Tables 3 and 4 as the compound concentration which produced half of the maximal level of SEAP induction (EC50)
According to the method of Test 1, human TLR7 reporter gene assay was done with the following samples, and the result was shown in the table below. The cell used herein was HEK-Blue™ hTLR7 cell line (Invivogen). HEK-Blue™ hTLR7 cell line is a stably co-transfected cell line which expresses full-length human TLR7 and secretory SEAP reporter gene under the transcriptional regulation of an NF-κB response element. The TLR7 expression of the cell line has been already tested by RT-PCR. Transfectants with stable expression were selected using the antibiotic blasticidin and Zeocin.

[2] = tested on: HLA-A*02:01 transgenic mouse; test: Test 10: in vivo adjuvant activity, cocktail vaccine b, IFNγ ELISPOT; details: added to cocktail vaccine b; 0.4 nmol per body, twice; FIG. 8 and 9
Procedure: Evaluation of In Vivo Adjuvant Activity in HLA-A*02:01 Transgenic Mouse
The in vivo adjuvant activity of the compound of Example 11 was evaluated in the following procedure. To cocktail vaccine b like Test 9 was added the compound prepared in Example 11 to prepare a vaccine. The vaccine was administered to a HLA-A*02:01 transgenic mouse, and the adjuvant activity of the vaccine was evaluated by the method of testing antigen-specific CTL induction.
Specifically, Compound of formula 4 and Peptide SEQ ID No. 3 were dissolved in DMSO, and then diluted with water for injection to concentrations of Compound of formula 4 of 3 mg/mL and Peptide SEQ ID No. 3 of 2.25 mg/mL. The diluted peptide solution was mixed and emulsified with an equal volume of Montanide ISA 51 VG to prepare cocktail vaccine b. Cocktail vaccine b was injected to mice intradermally at the tail base area in an amount for administering 300 μg of Compound of formula 4 per body and 225 μg of Peptide SEQ ID No. 3 per body. […] Then, after removal of the supernatant from the wells, stained spots on the ELISPOT plate were counted.

human TLR7 [3] = target: T1, human TLR7; test: Human TLR7 reporter gene assay (TLR7/NF-κB/SEAPorter HEK293 cell line), Tests 1 and 21; type: cell-based; details: Test 21; according to the method of Test 1; read-out: human EC50
Excerpt: Human TLR7 Reporter Gene Assay
as §1
According to the method of Test 1, human TLR7 reporter gene assay was done with the following samples, and the result was shown in the table below.

| Compound | EC50 (human TLR7 [1]) [µM] | CTL counts responsive to Peptide SEQ ID No. 1 or SEQ ID No. 4 compared with adding no compound [2] | EC50 (human TLR7 [3]) [µM] |
| --- | --- | --- | --- |
| CCC[C@@H](CO)Nc1nc(N)nc(C)c1Cc1ccc(C(=O)OCCOCCOCCOCCOC)cc1OC [Example 6, 2,5,8,11-tetraoxatridecan-13-yl 4-[(2-amino-4-{[(2S)-1-hydroxypentan-2-yl]amino}-6-methylpyrimidin-5-yl)methyl]-3-methoxybenzoate] | 0.119 |  |  |
| CCC[C@@H](CO)Nc1nc(N)nc(C)c1Cc1ccc(C(=O)NCCOCCOCCOCCOCCOCCOCCO)cc1OC [Example 5, 4-[(2-amino-4-{[(2S)-1-hydroxypentan-2-yl]amino}-6-methylpyrimidin-5-1)methyl]-N-(20-hydroxy-3,6,9,12,15,18-hexaoxaicosan-1-yl)-3-methoxybenzamide] | 7.27 |  |  |
| CCCCCNc1nc(N)nc(C)c1Cc1ccc(CN(CCOCCOCCOCCO)CCOCCOCCOCCO)cc1OC [Example 11, 12-[(4-{[2-amino-4-methyl-6-(pentylamino)pyrimidin-5-yl]methyl}-3-methoxyphenyl)methyl]-3,6,9,15,18,21-hexaoxa-12-azatricosan-1,23-diol] |  | more | 0.774 |
